Results published in patent US20240091241A1, “USE OF CANNABIDIOL PREPARATIONS IN THE TREATMENT OF TEMPORAL LOBE EPILEPSY” (GW Research Limited, priority 2019, published 2024).

Legend:
[1] = system: Li-Pilo rats; test: Social investigation test in Li-Pilo rats; type: in vivo, rat; conditions: 200 mg/kg, given orally for 6/7 weeks before the test
Description: (§1) From this point, the rats selected received vehicle during the first week of dosing then the test substance, CBD (SYN) or CBD (BOT 0.08%), at 200 mg/kg in drinking water until the end of the study, i.e. 7 weeks (1 week vehicle+6 weeks test substance). Dosing continued throughout the behavioural testing period (1 week). The drink was changed twice a week, until the end of the experiment.
The behavioural tests started 6 weeks after the beginning of dosing, i.e. between weeks 11 and 13. The rats were tested in sub-groups, depending on the beginning of the treatment. […]
Two unfamiliar rats (housed in 2 separate cages) from the same group were placed in an unfamiliar testing arena (80×80×40 cm) under dim light (<100 Lux). The behavior of the 2 rats was recorded for 10 minutes.
The time each rat spent investigating (sniffing, grooming, licking, closely following) the other rat was measured manually for 10 minutes. Locomotor activity (line crossing) was also recorded.
A test of normality (D'Agostino and Pearson) was done to check the distribution of the data before applying the appropriate statistical analysis. Data on the investigation duration was analyzed using Kruskal-Wallis Test followed by Dunn's multiple comparisons test. Data on the number of crossings was analysed using One-Way ANOVA followed by Sidak's multiple comparisons test.

[2] = system: Li-Pilo rats; test: Elevated plus-maze test in Li-Pilo rats; type: in vivo, rat; conditions: 200 mg/kg, given orally for 6/7 weeks before the test
Description: as §1
The behavioural tests started 6 weeks after the beginning of dosing, i.e. between weeks 11 and 13. The rats were tested in sub-groups, depending on the beginning of the treatment. The behavioural tests included the elevated plus maze, social investigation, social recognition and accelerating rotarod tests (tests done in this order on the week of assessment).
The method, which detects anxiolytic activity, follows that described by Handley and Mithani (Naunyn. Schmied. Arch. Pharmacol., 327, 1-5, 1984). Rodents avoid open spaces (the open arms of an elevated plus-maze). Anxiolytics increase exploratory activity in the open arms, as indicated by increased time spent on the open arms and/or by increased % open-arm entries.
The maze consisted of 4 arms of equal length and width (50×10 cm) arranged in the form of a plus sign (+). Two opposite arms were enclosed by 40 cm high walls (closed arms). The 2 other arms had no walls (open arms). The maze was raised approximately 65 cm above the floor. A rat was placed in the center of the plus-maze and was left to explore for 5 minutes. The number of entries into the open and closed arms and the time spent on the open arms were recorded. The % of open arm entries (open arm entries/total arm entries×100) was calculated.
A test of normality (D'Agostino and Pearson) was done to check the distribution of the data before applying the appropriate statistical analysis. Data on the total number of entries and on the percent of entries in open arms was analyzed using One-Way analysis of variance (ANOVA) followed by Sidak's multiple comparisons test. Data on the time spent in open arms was analysed using Kruskal-Wallis Test followed by Dunn's multiple comparisons test.

[3] = system: rat model of temporal lobe epilepsy, Reduced Intensity Status Epilepticus (RISE); test: Post-Seizure Behavioural Battery (PSBB) in the Reduced Intensity Status Epilepticus (RISE) model; type: in vivo
Description: Reduced Intensity Status Epilepticus (RISE) model
The method, which detects anti-epileptic activity follows that described by Modebaze et al., 2016 (PLoS one, 11(2):e0147265).
On Day 1, the rats were treated with lithium chloride (127 mg/kg, 5 mL/kg, s.c.). Approximately 24 hours after, on Day 2, a-methyl scopolamine (1 mg/kg, 1 mL/kg, s.c.) was administered to reduce peripheral manifestations of muscarinic cholinergic receptor activation. Thirty minutes later, a dose of pilocarpine chloride was injected (range from 25 mg/kg×1 to 40 mg/kg×5, i.e. 25-200 mg/kg, 1 mL/kg, s.c., reference P6503, Sigma). […]
Status epilepticus was determined when seizure severity was equal to a score of 5 on a Racine's scale. […]
Behavioural signs of status epilepticus were ceased within 30 minutes and animals were then closely monitored during subsequent recovery. They were visually monitored until ambulatory and able to consume water and moistened, powdered food. […]
The lithium-pilocarpine rats were assessed in the two following behavioural tests twice weekly over the next 10 weeks, starting two weeks after status epilepticus induction (on Day 15). […]
The PSBB score was analysed pre and post-treatment to assess firstly if the animals were evenly distributed in the 3 different treatment groups based on their epileptic phenotype and if it was affected differently by synthetic and botanical CBD. […]

[4] = General status / body weight of Li-Pilo rats during treatment; type: in vivo, rat
Description: as §1
The rats were weighed twice a week, at the same time that the vehicle/formulations were changed in the bottles. The glass bottles were also weighed twice a week for evaluating the volume drunk by the rat and adjusting the concentration during the experiment.

## C=C(C)[C@@H]1CCC(C)=C[C@H]1c1c(O)cc(CCCCC)cc1O [Synthetic CBD, cannabidiol]
[1]
  duration of investigation, as compared with control Li-Pilo rats: did not significantly change
  number of line crossings, as compared with control Li-Pilo rats: did not significantly change
[2]
  percent of entries in open arms, as compared with control Li-Pilo rats: did not clearly affect
  time spent in open arms, as compared with control Li-Pilo rats: did not clearly affect
[2]; 5 minutes
  total number of entries, as compared with control Li-Pilo rats: did not clearly affect
[3]; 200 mg/kg, given orally for 6/7 weeks before the test
  post-treatment PSBB score, as compared with control Li-Pilo rats (epileptic vehicle): did not significantly affect
[3]; epileptic animals, comparator not stated
  post-treatment PSBB score (conclusion): failed to lower the score
[4]; Phase 1
  rats that lost weight on the 7 weeks of test: Three other rats lost weight
[4]; Phase 1, nine rats in group
  deaths in the treated group: Two rats died
[4]; Phase 2
  rats that lost weight on the 7 weeks of test: Four other rats lost weight
[4]; Phase 2, thirteen rats in group
  rats lost before the end of the experiment: One rat was sacrificed for ethical reasons
